Experimental data taken from PubChem BioAssay (NCI).
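Cultured in 96-well plates, cells were exposed to test compound for 48 hours across five concentrations. GI50: concentration for 50% inhibition of growth. Definition used: TGI = concentration required for complete inhibition of growth.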

Experiments:
Experiment in all cases: inhibition of tumour cell growth, NCI panel, 48 h
KM12 colon = tested on: KM12 colon
OVCAR-8 ovarian = tested on: OVCAR-8 ovarian
U251 CNS = tested on: U251 CNS
RXF 393 renal = tested on: RXF 393 renal
HS 578T breast = tested on: HS 578T breast
HL-60(TB) leukemia = tested on: HL-60(TB) leukemia
MCF7 breast = tested on: MCF7 breast
MDA-MB-435 = tested on: MDA-MB-435
A549 NSCLC = tested on: A549 NSCLC
MDA-MB-231 breast = tested on: MDA-MB-231 breast

SMILES	TGI (KM12 colon) [µM]	TGI (OVCAR-8 ovarian) [µM]	TGI (U251 CNS) [µM]	TGI (RXF 393 renal) [µM]	TGI (HS 578T breast) [µM]	TGI (HL-60(TB) leukemia) [µM]	TGI (MCF7 breast) [µM]	TGI (MDA-MB-435) [µM]	TGI (A549 NSCLC) [µM]	TGI (MDA-MB-231 breast) [µM]	GI50 (U251 CNS) [µM]	GI50 (MDA-MB-231 breast) [µM]
Nc1c(-c2cccc3ccccc23)c2ccc([N+](=O)[O-])cc2c(=O)n1-c1nc2ccccc2s1	24.4	10.5	> 50.5	> 31.3	20.9	5.37	7.84	> 100	> 53.4	> 47.5		
CCCn1c(CN(Cc2nc3ccccc3n2CCC)Cc2nc3ccccc3n2CCC)nc2ccccc21	21.8	> 100	> 100	8.96	> 95.2	4.46	> 29.2	15.3	> 64.4	7.86		
Cc1csc(-c2cn(C)c3c2C(=O)C(N)=CC3=O)n1	> 100	> 100	> 100	> 100	> 80.2	14.8	> 100	15.3	8.76	> 100		
CN(C)c1nc(=NCc2ccccc2)ss1	> 10	> 10	> 10	> 10	> 10	> 8.45	> 10	> 10	> 10	> 10		
CCOc1cc(C2CC(c3ccc(NS(=O)(=O)c4cc([N+](=O)[O-])ccc4C)cc3)=NN2C(=O)c2ccccc2)ccc1O (configuration not stated)	> 100	> 100	> 100	42.6	> 100	65.4	> 100	> 100	> 100	48.1		
CC(C)COP(=O)(OCC(C)C)C(NS(=O)(=O)c1ccccc1)(C(F)(F)F)C(F)(F)F	14.4	25.5	17.3	21.1	97.9	4.13	> 100	22.3	14.4	5.56		
O=c1c2cc3c(cc2[nH]c2ncccc12)OCO3	> 10	> 10	> 10	> 10	> 10	> 10	> 10	> 10	> 10	> 10		
COC(=O)[C@]12CC[C@H]3CN(C(=O)OCc4ccccc4)[C@H]([C@H]31)[C@H](c1ccco1)N2S(=O)(=O)c1ccc(C)cc1	38.5	> 100	71.4	38.1	> 100	58.7	42	67.3	> 100	> 100		
O=C(NCCN1CCOCC1)c1ccc2cc(C(=O)N3CC(CCl)c4ccc([N+](=O)[O-])cc43)[nH]c2c1 (configuration not stated)	> 100	35.4	57.8	20.4	52.4	94.7	> 100	49.2	26.1	36.3		
C(=N\NC1=NCCCN1)/c1ccc2ccccc2c1	28	29.3	19.8	30.3	41.3	21	15.8	18.7	22.4	20		
O=c1oc(-c2ccc(O)c(O)c2)cc2cccc(O)c12	32.1	> 100	79.1	69.3	73.2	50.2	> 54.1	60.3	> 100	46.9	17.1	14.1
NNC(=O)c1ccc[n+](CCc2ccccc2)c1	> 100	> 100	> 100	> 100	> 100	> 100	> 100	> 100	> 100	> 100		
CC1CC[C@@]2(OC1)OC1C[C@H]3[C@@H]4CC[C@H]5CC(OC6OC(CO)C(OC7OC(CO)C(O)C(O)C7OC7OC(CO)C(O)C(O)C7O)C(O)C6O)CCC5(C)[C@H]4CCC3(C)C1[C@@H]2C (some centres not stated)	10.4	14.3	2.74	2.76	7.44	11.6	2.26	9.7	7.93	3.04		
COc1cc(NS(C)(=O)=O)ccc1N1Cc2cnc3ccc4[nH]c(C)cc1c4c23	> 100	> 100	> 100	> 100	> 100	> 100	> 100	50.1	> 100	> 100		
C1=CC2=CC=CC3c4nc5ccc6ccccc6c5nc4C(=C1)C23 (configuration not stated)	> 100	> 100	> 100	> 100	> 100	> 100	> 100	> 100	> 100	> 100		
COc1ccc(C2(CC(C)O)SCCCS2)cc1 (configuration not stated)	> 100	> 100	> 100	> 100	> 100	> 100	> 100	> 100	> 100	> 100		
CCCNC(=O)CCC(C)[C@H]1CCC2C3C(C[C@H](OC(C)=O)[C@@]21C)[C@@]1(C)CCC2(C[C@H]1C[C@H]3OC(C)=O)OOC1(CCC(C)CC1)OO2 (some centres not stated)	20.2	48.3	30.6	> 100	> 100	32.4	> 100	39.5	5.26	98.4		
COc1nc(C#CCC(C)O)nc(OC)n1 (configuration not stated)	82	39.5	76.9	24.2	72	94.6	33.5	54.6	52.9	52		
O=P(c1ccccc1)(c1ccccc1)N1O[C@@H](c2ccccc2)C=C[C@H]1c1ccccc1	44.4	32.7	16.9	22.9	44.6	28.4	12.6	18.7	24	21.1		
CCN(CCO)CC1COc2ccccc2O1 (configuration not stated)	> 100	> 100	> 100	> 100	> 100	> 100	> 100	> 100	> 100	> 100		
C=CCn1c(=O)ccn(COCCO)c1=O	> 100	> 100	> 100	> 100	> 100	> 100	> 100	> 100	> 100	> 100		
Oc1ccccc1/C=N/c1nc2cc3sc(/N=C/c4ccccc4O)nc3cc2s1	> 100	> 100	> 100	> 85.3	> 89	> 73.3	> 100	> 100	> 100	> 100		
O=c1cc(N=P(c2ccccc2)(c2ccccc2)c2ccccc2)n(-c2ccccc2)c(=O)n1-c1ccccc1	> 100	> 100	29.2	15.1	58	44.6	34.3	57.2	24.6	78.9		
N#CCCN(CCC#N)c1ccc(/C=C2\N=C(c3ccccc3)N(c3ccc(Cl)cc3)C2=O)cc1	> 100	> 100	> 100	> 100	86.8	> 100	> 100	> 100	> 100	> 100		
Clc1ccc(-c2nn3c(-c4ccncc4)nnc3s2)cc1	> 100	> 100	75	82.1	> 100	> 100	> 100	> 100	> 100	> 100		
O=C1/C(=C\c2cccc(Oc3ccccc3)c2)S(=O)(=O)C(c2ccccc2)N1Cc1ccccc1 (configuration not stated)	56.8	53.4	> 100	77.5	40.5	57.7	> 100	96.5	> 100	68.1		
